Experimental data reported in patent US8901118B2, “Compounds and methods for kinase modulation, and indications therefor” (Plexxikon Inc., priority 2010, dated 2014).

What was measured:
TrkA kinase = TrkA kinase (Homo sapiens, UniProt P04629); assay: TrkA kinase biochemical activity assay (AlphaScreen); conditions: 100 μM ATP; read-out: Biochemical Inhibition IC50 TrkA
Procedure, shortened: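 Recombinant TrkA with 30 nM biotin-(E4Y)10 and 100 μM ATP in 25 mM Hepes pH 7.5, 10 mM MnCl2, 5% DMSO, 40 min at room temperature. Phosphorylation read by AlphaScreen (streptavidin donor, PY20 acceptor beads); IC50 from signal vs compound concentration. TrkC run similarly.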

[1] = Relative solubility by turbidity in aqueous buffers (pH 1.5, 4.5, 6.8, 7.4); format: physicochemical; conditions: for turbidity threshold (L, M, H) 1.4: pH 1.5 (SGF); for turbidity threshold (L, M, H) 4.5: pH 4.5 (SIF); for turbidity threshold (L, M, H) 6.8: pH 6.8 (SIF); for turbidity threshold (L, M, H) 7.4: pH 7.4 (HEPES)
Procedure, shortened: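 Twofold DMSO dilutions of a 25 mM stock were spiked into SGF (0.5M NaCl, pH 1.5), SIF (0.05M NaH2PO4, pH 4.5 and 6.8) or HEPES buffer (10 mM HEPES, 150 mM NaCl, pH 7.4). Absorbance was read at 490, 535 and 650 nm. The endpoint is the concentration crossing O.D. 0.01, averaged across wavelengths.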

Chain of TrkA kinase (P04629 33-796): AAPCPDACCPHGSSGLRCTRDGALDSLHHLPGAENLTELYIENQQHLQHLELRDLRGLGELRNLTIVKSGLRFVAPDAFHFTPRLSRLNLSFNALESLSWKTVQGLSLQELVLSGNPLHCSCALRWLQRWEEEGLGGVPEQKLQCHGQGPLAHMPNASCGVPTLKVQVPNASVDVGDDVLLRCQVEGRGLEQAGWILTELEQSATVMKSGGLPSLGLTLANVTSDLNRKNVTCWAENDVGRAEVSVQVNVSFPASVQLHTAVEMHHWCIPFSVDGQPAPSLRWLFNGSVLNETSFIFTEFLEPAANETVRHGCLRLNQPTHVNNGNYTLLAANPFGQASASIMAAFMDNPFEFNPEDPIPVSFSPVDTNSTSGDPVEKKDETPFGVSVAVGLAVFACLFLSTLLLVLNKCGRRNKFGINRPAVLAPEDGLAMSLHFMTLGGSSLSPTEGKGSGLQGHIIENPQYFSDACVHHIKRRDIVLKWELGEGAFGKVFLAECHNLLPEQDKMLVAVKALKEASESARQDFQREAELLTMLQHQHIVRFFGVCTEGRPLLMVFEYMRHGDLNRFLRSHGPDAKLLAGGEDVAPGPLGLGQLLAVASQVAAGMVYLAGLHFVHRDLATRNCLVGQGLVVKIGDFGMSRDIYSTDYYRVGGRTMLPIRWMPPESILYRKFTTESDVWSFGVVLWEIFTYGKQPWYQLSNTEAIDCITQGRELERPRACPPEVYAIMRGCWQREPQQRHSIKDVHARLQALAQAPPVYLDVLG

IC50 (TrkA kinase) | Structure (SMILES) | turbidity threshold (L, M, H) 1.4 [1] | turbidity threshold (L, M, H) 4.5 [1] | turbidity threshold (L, M, H) 6.8 [1] | turbidity threshold (L, M, H) 7.4 [1]
< 100 nM | Cc1ccc(Nc2ccc(C(=O)c3c[nH]c4ncnc(NCC(F)(F)F)c34)c(F)n2)cn1 [Compound P-4112, [2-fluoro-6-[(6-methyl-3-pyridyl)amino]-3-pyridyl]-[4-(2,2,2-trifluoroethylamino)-7H-pyrrolo[2,3-d]pyrimidin-5-yl]methanone] | M (moderate solubility if the threshold concentration is 31.3 μM to 250 μM) | M (moderate solubility if the threshold concentration is 31.3 μM to 250 μM) | M (moderate solubility if the threshold concentration is 31.3 μM to 250 μM) | H (high solubility if the threshold concentration is >250 μm)
< 10 nM | CCc1ccc(Nc2ccc(C(=O)c3c[nH]c4ncnc(NC(C)C)c34)c(F)n2)cn1 [Compound P-4117, [6-[(6-ethyl-3-pyridyl)amino]-2-fluoro-3-pyridyl]-[4-(isopropylamino)-7H-pyrrolo[2,3-d]pyrimidin-5-yl]methanone] | H (high solubility if the threshold concentration is >250 μm) | L (low solubility if the threshold concentration is <31.3 μM) | L (low solubility if the threshold concentration is <31.3 μM) | L (low solubility if the threshold concentration is <31.3 μM)
< 10 nM | COc1ccc(Nc2ccc(C(=O)c3c[nH]c4ncnc(NC5CCCCC5)c34)c(F)n2)cn1 [Compound P-4082, [4-(cyclohexylamino)-7H-pyrrolo[2,3-d]pyrimidin-5-yl]-[2-fluoro-6-[(6-methoxy-3-pyridyl)amino]-3-pyridyl]methanone] | M (moderate solubility if the threshold concentration is 31.3 μM to 250 μM) | L (low solubility if the threshold concentration is <31.3 μM) | L (low solubility if the threshold concentration is <31.3 μM) | L (low solubility if the threshold concentration is <31.3 μM)
< 100 nM | CCc1ccc(Nc2ccc(C(=O)c3c[nH]c4ncnc(NCC(C)C)c34)c(F)n2)cn1 [Compound P-4121, [6-[(6-ethyl-3-pyridyl)amino]-2-fluoro-3-pyridyl]-[4-(isobutylamino)-7H-pyrrolo[2,3-d]pyrimidin-5-yl]methanone] | H (high solubility if the threshold concentration is >250 μm) | H (high solubility if the threshold concentration is >250 μm) | H (high solubility if the threshold concentration is >250 μm) | H (high solubility if the threshold concentration is >250 μm)
< 100 nM | CC(C)Nc1ncnc2[nH]cc(C(=O)c3ccc(NC4CCCCC4)nc3F)c12 [Compound P-4101, [6-(cyclohexylamino)-2-fluoro-3-pyridyl]-[4-(isopropylamino)-7H-pyrrolo[2,3-d]pyrimidin-5-yl]methanone] | M (moderate solubility if the threshold concentration is 31.3 μM to 250 μM) | L (low solubility if the threshold concentration is <31.3 μM) | L (low solubility if the threshold concentration is <31.3 μM) | L (low solubility if the threshold concentration is <31.3 μM)
< 10 nM | O=C(c1ccc(Nc2ccc(C(F)(F)F)nc2)nc1F)c1c[nH]c2ncnc(NC3CC3)c12 [Compound P-4091, [4-(cyclopropylamino)-7H-pyrrolo[2,3-d]pyrimidin-5-yl]-[2-fluoro-6-[[6-(trifluoromethyl)-3-pyridyl]amino]-3-pyridyl]methanone] | H (high solubility if the threshold concentration is >250 μm) | M (moderate solubility if the threshold concentration is 31.3 μM to 250 μM) | M (moderate solubility if the threshold concentration is 31.3 μM to 250 μM) | M (moderate solubility if the threshold concentration is 31.3 μM to 250 μM)

Second part, the molecule before the results:

Structure (SMILES) | IC50 (TrkA kinase) | turbidity threshold (L, M, H) 1.4 [1] | turbidity threshold (L, M, H) 4.5 [1] | turbidity threshold (L, M, H) 6.8 [1] | turbidity threshold (L, M, H) 7.4 [1]
CCc1ccc(Nc2ccc(C(=O)c3c[nH]c4ncnc(N)c34)c(F)n2)cn1 [Compound P-4065, (4-amino-7H-pyrrolo[2,3-d]pyrimidin-5-yl)-[6-[(6-ethyl-3-pyridyl)amino]-2-fluoro-3-pyridyl]methanone] | < 10 nM | H (high solubility if the threshold concentration is >250 μm) | M (moderate solubility if the threshold concentration is 31.3 μM to 250 μM) | M (moderate solubility if the threshold concentration is 31.3 μM to 250 μM) | M (moderate solubility if the threshold concentration is 31.3 μM to 250 μM)
CCC(C)Nc1ncnc2[nH]cc(C(=O)c3ccc(Nc4ccc(OC)nc4)nc3F)c12 (stereo not shown) [Compound P-4078, [2-fluoro-6-[(6-methoxy-3-pyridyl)amino]-3-pyridyl]-[4-(sec-butylamino)-7H-pyrrolo[2,3-d]pyrimidin-5-yl]methanone] | < 10 nM | M (moderate solubility if the threshold concentration is 31.3 μM to 250 μM) | L (low solubility if the threshold concentration is <31.3 μM) | L (low solubility if the threshold concentration is <31.3 μM) | L (low solubility if the threshold concentration is <31.3 μM)
COc1ccc(Nc2ccc(C(=O)c3c[nH]c4ncnc(NC5CCCC5)c34)c(F)n2)cn1 [Compound P-4075, [4-(cyclopentylamino)-7H-pyrrolo[2,3-d]pyrimidin-5-yl]-[2-fluoro-6-[(6-methoxy-3-pyridyl)amino]-3-pyridyl]methanone] | < 10 nM | M (moderate solubility if the threshold concentration is 31.3 μM to 250 μM) | L (low solubility if the threshold concentration is <31.3 μM) | L (low solubility if the threshold concentration is <31.3 μM) | L (low solubility if the threshold concentration is <31.3 μM)
COCCCNc1ncnc2[nH]cc(C(=O)c3ccc(Nc4ccc(OC)nc4)nc3F)c12 [Compound P-4079, [2-fluoro-6-[(6-methoxy-3-pyridyl)amino]-3-pyridyl]-[4-(3-methoxypropylamino)-7H-pyrrolo[2,3-d]pyrimidin-5-yl]methanone] | < 10 nM | H (high solubility if the threshold concentration is >250 μm) | M (moderate solubility if the threshold concentration is 31.3 μM to 250 μM) | M (moderate solubility if the threshold concentration is 31.3 μM to 250 μM) | M (moderate solubility if the threshold concentration is 31.3 μM to 250 μM)
CCNc1ncnc2[nH]cc(C(=O)c3ccc(Nc4ccc(C5CC5)nc4)nc3F)c12 [Compound P-4060, [6-[(6-cyclopropyl-3-pyridyl)amino]-2-fluoro-3-pyridyl]-[4-(ethylamino)-7H-pyrrolo[2,3-d]pyrimidin-5-yl]methanone] | < 10 nM | H (high solubility if the threshold concentration is >250 μm) | M (moderate solubility if the threshold concentration is 31.3 μM to 250 μM) | M (moderate solubility if the threshold concentration is 31.3 μM to 250 μM) | M (moderate solubility if the threshold concentration is 31.3 μM to 250 μM)
